US7695751B2 (priority 2004, dated 2010)
Values joined by “and” are separate entries in the source; they are usually repeats but may differ in a detail not shown here. Identical values can stand only once.

Test system: Salmonella Typhimurium strain TA98
Type: cell-based

## Aflatoxin B1 [AFB1 control]
  MR: 13.75 and 12.35
  Number of mutant colonies/plate: 383 ± 65 colonies/plate
  The number of mutant colonies/plate: 385 ± 97 colonies/plate
